# Laboratory results published in patent publication US7384927B2, “Alkylated porphyrins as pesticides acting both in the presence and absence of light” (priority 2003, dated 2008).
# Tests used:
# Format in all cases: in vivo
# [1] = test system: Bactrocera oleae (olive fly); assay: Uptake of alkylated porphyrins by flies fed porphyrin-containing bait; conditions: B. oleae
# Method: (§1) Porphyrins: • a) meso[tri(N-methyl-pyridyl), mono(N-dodecyl-pyridyl)]porphine (abbr.: C12) • b) meso[tri(N-methyl-pyridyl), mono(N-tetradecyl-pyridyl)]porphine (abbr.: C14) • c) meso[tri(N-methyl-pyridyl), mono(N-octadecyl-pyridyl)]porphine (abbr.: C18) Bait: Aqueous solution containing 10% sucrose and 1% autolysed yeast Flies: • a) Ceratitis capitata (fruit fly) age: 1 week; weight: 5-6 mg • b) Bactrocera oleae (olive fly) age: 10 days; weight: 4-4.5 mg • c) Stomoxis calcitrans (stable fly) age: 10 days; weight: 12 mg Irradiation: • a) High pressure halogen lamp, equipped with infrared and UV filters, emission 360-850 nm, operated at intensities in the 760-2,000 μE s^−1m^−2 range • b) Sunlight, mid June at Padua latitude, average intensity of […] μE s^−1m^−2 with minimum and maximum values of 950 and, respectively, 1,380 μE s^−1m^−2
# (§2) An appropriate number of flies (50 flies per each experiment) was caged in 115×55×70 mm Plexiglas cages with several holes (ø=0.5 mm) and starved for 36 h. Then, depending on the protocol to be adopted for each specific experiment, the flies were fed with the bait (10% sucrose and 1% autolysed yeast in neutral aqueous solution), which was either porphyrin-free or added with a predetermined concentration of the porphyrin. These flies were then used in the various experimental sessions.
# (§3) At predetermined times, the flies were sacrificed by freezing; the dead flies were then homogenized with a Polytron in 10 ml of a 2% aqueous solution of sodium dodecylsulphate (SDS). The suspension was centrifuged for 10 min at 2,000 rpm, the pellet was discarded and known aliquots of the supernatant were diluted by means of a chloroform/methanol binary mixture (1/2, v/v). The porphyrin concentration was measured by reading the fluorescence emitted at wavelengths above 630 nm and interpolating the emission intensity with a calibration plot obtained with known amounts of the porphyrin. The results were expressed as nanomoles of porphyrin recovered per fly.
# [2] = test system: Ceratitis capitata (fruit fly); assay: as above; conditions: C. capitata
# Method: as §1, §2, §3
# [3] = test system: Stomoxis calcitrans (stable fly); assay: as above; conditions: S. calcitrans
# Method: as §1, §2, §3
# [4] = test system: Bactrocera oleae (olive fly); assay: Release of alkylated porphyrin from flies after feeding with bait interrupted; conditions: B. oleae, 1.25 μM porphyrin in the bait
# Method: as §2, §3
# [5] = test system: Ceratitis capitata (fruit fly); assay: as above; conditions: C. capitata, 1.25 μM porphyrin in the bait
# Method: as §2, §3
# [6] = test system: Stomoxis calcitrans (stable fly); assay: as above; conditions: S. calcitrans, 1.25 μM porphyrin in the bait
# Method: as §2, §3
# Ceratitis capitata flies [7] = assay: Insecticidal action in the dark: fly survival after porphyrin bait; conditions: dark, fed 24 h, survival 12 h after change to porphyrin-free bait
# Method: For comparison, data obtained with two conventional porphyrins (as those described in WO 97/29637) offered to the insects for 24 h at a 3.0 and 8.1 μmolar concentration in the same bait are also shown. In all cases, the survival was determined 12 hours after changing food supply from a porphyrin-containing to a porphyrin-free bait. […] These flies were then used in the various experimental sessions. […] The number of survivors was evaluated 12 h after switching from administration of a porphyrin-containing bait to a porphyrin-free bait. In none of the experiments was mortality or any apparent toxic effect observed in control flies (flies not fed with porphyrin, see survival at 0 μM porphyrin concentration).
# Ceratitis capitata flies [8] = assay: Photoinsecticidal action: fly survival after bait and visible light irradiation (artificial lamp); conditions: for Survival (% of control untreated flies): survival 10 h after irradiation
# Method: as §1
# The irradiations were performed for 1 h, then the flies were kept in dim light for monitoring the survival. Control flies were irradiated under identical conditions after feeding with a porphyrin-free bait.
# The irradiations were performed for 1 h at a fluence-rate of 1220 μE s^−1m^−2. The survival was evaluated 10 h after the end of irradiation. […] The porphyrins are abbreviated as following: HP: haematoporphyrin; C1: meso-tetra(N-methyl-pyridyl)porphine.
# The survival was evaluated 10 h after the end of irradiation.
# An appropriate number of flies (50 flies per each experiment) was caged in 115×55×70 mm Plexiglas cages with several holes (ø=0.5 mm) and starved for 36 h. Then, depending on the protocol to be adopted for each specific experiment, the flies were fed with the bait (10% sucrose and 1% autolysed yeast in neutral aqueous solution), which was either porphyrin-free or added with a predetermined concentration of the porphyrin. These flies were then used in the various experimental sessions. […]
# Ceratitis capitata flies [9] = assay: Photoinsecticidal action: fly survival after bait and sunlight irradiation; conditions: 3 μM in bait, 12 h after feeding, survival 1 h after irradiation
# Method: as §1
# The survival was evaluated 1 h after the end of irradiation.
# as §2
# [10] = exposure time to bait 3 h, porphyrin in bait 1.24 μM
# [11] = exposure time to bait 12 h, porphyrin in bait 1.24 μM
# [12] = exposure time to bait 24 h, porphyrin in bait 1.24 μM
# [13] = porphyrin concentration in bait 0.75 (μmoles), feeding 24 h
# [14] = porphyrin concentration in bait 1.25 (μmoles), feeding 24 h
# [15] = porphyrin concentration in bait 2.10 (μmoles), feeding 24 h
# [16] = porphyrin concentration in bait 3.50 (μmoles), feeding 24 h
# [17] = porphyrin concentration in bait 6.00 (μmoles), feeding 24 h
structure (smiles),measurement,setting,value
"CCCCCCCCCCCCCC[n+]1ccc(-c2c3nc(c(-c4cc[n+](C)cc4)c4ccc([nH]4)c(-c4cc[n+](C)cc4)c4nc(c(-c5cc[n+](C)cc5)c5ccc2[nH]5)C=C4)C=C3)cc1 [C14, meso[tri(N-methyl-pyridyl), mono(N-tetradecyl-pyridyl)]porphine]",Recoveries (nmoles of porphyrin per fly),[1]; [10],2.2 nmoles of porphyrin per fly
same,Recoveries (nmoles of porphyrin per fly),[1]; [11],3.7 nmoles of porphyrin per fly
same,Recoveries (nmoles of porphyrin per fly),[1]; [12],4.8 nmoles of porphyrin per fly
same,Recoveries (nmoles of porphyrin per fly),[1]; [13],3.9 nmoles of porphyrin per fly
same,Recoveries (nmoles of porphyrin per fly),[1]; [14],4.8 nmoles of porphyrin per fly
same,Recoveries (nmoles of porphyrin per fly),[1]; [15],8.5 nmoles of porphyrin per fly
same,Recoveries (nmoles of porphyrin per fly),[1]; [16],10.6 nmoles of porphyrin per fly
same,Recoveries (nmoles of porphyrin per fly),[1]; [17],13.8 nmoles of porphyrin per fly
same,Recoveries (nmoles of porphyrin per fly),[2]; [10],2.9 nmoles of porphyrin per fly
same,Recoveries (nmoles of porphyrin per fly),[2]; [11],5.3 nmoles of porphyrin per fly
same,Recoveries (nmoles of porphyrin per fly),[2]; [12],5.7 nmoles of porphyrin per fly
same,Recoveries (nmoles of porphyrin per fly),[2]; [13],2.6 nmoles of porphyrin per fly
same,Recoveries (nmoles of porphyrin per fly),[2]; [14],5.7 nmoles of porphyrin per fly
same,Recoveries (nmoles of porphyrin per fly),[2]; [15],9.6 nmoles of porphyrin per fly
same,Recoveries (nmoles of porphyrin per fly),[2]; [16],11.5 nmoles of porphyrin per fly
same,Recoveries (nmoles of porphyrin per fly),[2]; [17],14.0 nmoles of porphyrin per fly
same,Recoveries (nmoles of porphyrin per fly),[3]; [10],2.4 nmoles of porphyrin per fly
same,Recoveries (nmoles of porphyrin per fly),[3]; [11],5.6 nmoles of porphyrin per fly
same,Recoveries (nmoles of porphyrin per fly),[3]; [12],6.2 nmoles of porphyrin per fly
same,Recoveries (nmoles of porphyrin per fly),[3]; [13],4.1 nmoles of porphyrin per fly
same,Recoveries (nmoles of porphyrin per fly),[3]; [14],6.2 nmoles of porphyrin per fly
same,Recoveries (nmoles of porphyrin per fly),[3]; [15],10.2 nmoles of porphyrin per fly
same,Recoveries (nmoles of porphyrin per fly),[3]; [16],12.5 nmoles of porphyrin per fly
same,Recoveries (nmoles of porphyrin per fly),[3]; [17],12.8 nmoles of porphyrin per fly
same,"Recoveries (nmoles of porphyrin per fly), release",[4]; 12 h after feeding interrupted,3.2 nmoles of porphyrin per fly
same,"Recoveries (nmoles of porphyrin per fly), release",[4]; 24 h after feeding interrupted,2.0 nmoles of porphyrin per fly
same,"Recoveries (nmoles of porphyrin per fly), release",[4]; 48 h after feeding interrupted,0.6 nmoles of porphyrin per fly
same,"Recoveries (nmoles of porphyrin per fly), release",[5]; 12 h after feeding interrupted,3.0 nmoles of porphyrin per fly
same,"Recoveries (nmoles of porphyrin per fly), release",[5]; 24 h after feeding interrupted,1.8 nmoles of porphyrin per fly
same,"Recoveries (nmoles of porphyrin per fly), release",[5]; 48 h after feeding interrupted,0.7 nmoles of porphyrin per fly
same,"Recoveries (nmoles of porphyrin per fly), release",[6]; 12 h after feeding interrupted,4.3 nmoles of porphyrin per fly
same,"Recoveries (nmoles of porphyrin per fly), release",[6]; 24 h after feeding interrupted,2.2 nmoles of porphyrin per fly
same,"Recoveries (nmoles of porphyrin per fly), release",[6]; 48 h after feeding interrupted,0.8 nmoles of porphyrin per fly
same,Survival (% of control untreated flies),Ceratitis capitata flies [7]; 0.75 μM in bait,100 % of control untreated flies
same,Survival (% of control untreated flies),Ceratitis capitata flies [7]; 1.25 μM in bait,51 % of control untreated flies
same,Survival (% of control untreated flies),Ceratitis capitata flies [7]; 2.10 μM in bait,38 % of control untreated flies
same,Survival (% of control untreated flies),Ceratitis capitata flies [7]; 3.00 μM in bait,21 % of control untreated flies
same,Survival (% of control untreated flies),Ceratitis capitata flies [7]; 5.00 μM in bait,14 % of control untreated flies
same,Survival (% of control untreated flies),Ceratitis capitata flies [7]; 8.10 μM in bait,9 % of control untreated flies
same,Survival (% of control untreated flies),"Ceratitis capitata flies [8]; 3 μM in bait 24 h, time interval feeding-irradiation 0 h, irradiation 1 h at 1220 μE s^−1m^−2",0 % of control untreated flies
same,Survival (% of control untreated flies),"Ceratitis capitata flies [8]; 3 μM in bait 24 h, time interval feeding-irradiation 12 h, irradiation 1 h at 1220 μE s^−1m^−2",0 % of control untreated flies
same,Survival (% of control untreated flies),"Ceratitis capitata flies [8]; 3 μM in bait 24 h, time interval feeding-irradiation 24 h, irradiation 1 h at 1220 μE s^−1m^−2",10 % of control untreated flies
same,Survival (% of control untreated flies),"Ceratitis capitata flies [8]; 3 μM in bait 24 h, time interval feeding-irradiation 48 h, irradiation 1 h at 1220 μE s^−1m^−2",21 % of control untreated flies
same,Survival (% of control untreated flies),"Ceratitis capitata flies [8]; 3 μM in bait, fluence-rate 760 μE s^−1m^−2, irradiated 24 h after feeding (title)",10 % of control untreated flies
same,Survival (% of control untreated flies),"Ceratitis capitata flies [8]; 3 μM in bait, fluence-rate 1220 μE s^−1m^−2, irradiated 24 h after feeding (title)",0 % of control untreated flies
same,Survival (% of control untreated flies),"Ceratitis capitata flies [8]; 3 μM in bait, fluence-rate 1500 μE s^−1m^−2, irradiated 24 h after feeding (title)",0 % of control untreated flies
same,Survival (% of control untreated flies),"Ceratitis capitata flies [8]; 3 μM in bait, fluence-rate 2000 μE s^−1m^−2, irradiated 24 h after feeding (title)",0 % of control untreated flies
same,time by which essentially all flies died,Ceratitis capitata flies [8]; after 1 h illumination with artificial light or sunlight,≤ 45 min
same,photoinsecticidal action compared among alkylated porphyrins,Ceratitis capitata flies [8]; irradiation with visible light or sunlight,most efficient insecticidal action
same,Survival (% of control untreated flies),Ceratitis capitata flies [9]; sunlight (average 1150 μE s^−1m^−2) 15 min,21 % of control untreated flies
same,Survival (% of control untreated flies),Ceratitis capitata flies [9]; sunlight (average 1150 μE s^−1m^−2) 30 min,10 % of control untreated flies
same,Survival (% of control untreated flies),Ceratitis capitata flies [9]; sunlight (average 1150 μE s^−1m^−2) 45 min,0 % of control untreated flies
same,Survival (% of control untreated flies),Ceratitis capitata flies [9]; sunlight (average 1150 μE s^−1m^−2) 60 min,0 % of control untreated flies
